Measured values from ChEMBL document CHEMBL1201862, “PubChem BioAssay data set” (2004).
Calls of active or inactive are those of the source.

Assays:
[1] = intracellular Trypanosoma cruzi inhibitors in host cells – cell-based, plate reader, cherry-pick samples, set 3, dose response (AID 651818); type: functional;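 further: compounds incubated with infected cells for about four days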
[2] = biological target: T1, Carboxy-terminal domain RNA polymerase II polypeptide A small phosphatase 1 (Homo sapiens, UniProt Q9GZU7); experiment: CTDSP1 inhibitors, concentration-response, biochemical, absorbance readout, ultra-high-throughput screen actives (AID 540297); type: functional
T1 sequence (Q9GZU7 whole entry): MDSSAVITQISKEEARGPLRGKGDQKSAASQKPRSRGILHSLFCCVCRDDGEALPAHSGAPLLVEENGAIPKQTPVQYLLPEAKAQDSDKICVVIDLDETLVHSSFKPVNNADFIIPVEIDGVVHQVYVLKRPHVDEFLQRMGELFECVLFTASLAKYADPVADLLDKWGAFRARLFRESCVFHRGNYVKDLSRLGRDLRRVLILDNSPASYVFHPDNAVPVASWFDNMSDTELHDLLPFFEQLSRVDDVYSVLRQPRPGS

[3] = DRD fibroblast viability loss – cell-based, non-viral oncogenic, luminescence, dose response (AID 1934); type: functional; settings: Homo sapiens
BJ [4] = experiment: BJ-TERT fibroblast viability loss – cell-based, RAS-independent, luminescence, dose response (AID 1933); type: functional; settings: Homo sapiens
BJ [5] = experiment: BJ-TERT-LT-ST fibroblast viability loss – cell-based, RAS-independent, luminescence, dose response (AID 1935); type: functional; settings: Homo sapiens;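 further: BJ fibroblasts immortalized with TERT plus LT and ST oncogenes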
[6] = biological target: T2, Replicative DNA helicase DnaB (Mycobacterium tuberculosis, UniProt P9WMR3); experiment: DnaB intein splicing inhibitors, dose response, biochemical, cell-free fluorescence (AID 449749); type: functional
T2 sequence (P9WMR3 whole entry): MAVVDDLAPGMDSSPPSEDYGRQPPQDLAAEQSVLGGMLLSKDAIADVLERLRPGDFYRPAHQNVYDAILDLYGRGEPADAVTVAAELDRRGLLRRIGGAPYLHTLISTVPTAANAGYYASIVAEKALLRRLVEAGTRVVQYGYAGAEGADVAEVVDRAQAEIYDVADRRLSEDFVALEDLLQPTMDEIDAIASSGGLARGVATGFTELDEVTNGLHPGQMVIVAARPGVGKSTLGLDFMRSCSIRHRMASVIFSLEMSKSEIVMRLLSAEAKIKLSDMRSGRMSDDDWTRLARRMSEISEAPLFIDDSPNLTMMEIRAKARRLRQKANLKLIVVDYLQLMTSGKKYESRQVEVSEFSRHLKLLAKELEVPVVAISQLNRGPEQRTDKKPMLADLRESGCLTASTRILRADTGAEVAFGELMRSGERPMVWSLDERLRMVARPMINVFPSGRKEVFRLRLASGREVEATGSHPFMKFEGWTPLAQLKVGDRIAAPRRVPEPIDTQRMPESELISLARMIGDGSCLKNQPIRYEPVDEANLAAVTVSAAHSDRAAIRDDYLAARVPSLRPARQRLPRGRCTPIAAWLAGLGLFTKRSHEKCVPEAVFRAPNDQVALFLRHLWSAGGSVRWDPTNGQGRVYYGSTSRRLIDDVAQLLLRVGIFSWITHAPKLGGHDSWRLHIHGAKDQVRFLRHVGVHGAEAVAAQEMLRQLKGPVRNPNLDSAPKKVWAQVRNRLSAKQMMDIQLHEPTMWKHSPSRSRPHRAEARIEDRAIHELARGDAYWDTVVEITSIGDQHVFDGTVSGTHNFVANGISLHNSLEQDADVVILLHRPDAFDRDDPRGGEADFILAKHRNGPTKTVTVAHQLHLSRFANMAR

[7] = viability of uninfected HEp-2 cells – cell-based, HTS, cytotoxicity control for RSV inhibitor project, dose response (AID 2410); type: functional; settings: human respiratory syncytial virus
BJ [8] = experiment: cells; type: functional, cell-based; settings: Homo sapiens
Protein RecA = biological target: T3, Protein RecA (Mycobacterium tuberculosis, UniProt P9WHJ3); experiment: Fluorescence Cell-Free Homogeneous Dose Retest to Identify Inhibitors of RecA-Intein Splicing Activity. [Related pubchem assays (depositor defined):AID2097, AID2223, AID489010, AID492950]; type: functional
T3 sequence (P9WHJ3 whole entry): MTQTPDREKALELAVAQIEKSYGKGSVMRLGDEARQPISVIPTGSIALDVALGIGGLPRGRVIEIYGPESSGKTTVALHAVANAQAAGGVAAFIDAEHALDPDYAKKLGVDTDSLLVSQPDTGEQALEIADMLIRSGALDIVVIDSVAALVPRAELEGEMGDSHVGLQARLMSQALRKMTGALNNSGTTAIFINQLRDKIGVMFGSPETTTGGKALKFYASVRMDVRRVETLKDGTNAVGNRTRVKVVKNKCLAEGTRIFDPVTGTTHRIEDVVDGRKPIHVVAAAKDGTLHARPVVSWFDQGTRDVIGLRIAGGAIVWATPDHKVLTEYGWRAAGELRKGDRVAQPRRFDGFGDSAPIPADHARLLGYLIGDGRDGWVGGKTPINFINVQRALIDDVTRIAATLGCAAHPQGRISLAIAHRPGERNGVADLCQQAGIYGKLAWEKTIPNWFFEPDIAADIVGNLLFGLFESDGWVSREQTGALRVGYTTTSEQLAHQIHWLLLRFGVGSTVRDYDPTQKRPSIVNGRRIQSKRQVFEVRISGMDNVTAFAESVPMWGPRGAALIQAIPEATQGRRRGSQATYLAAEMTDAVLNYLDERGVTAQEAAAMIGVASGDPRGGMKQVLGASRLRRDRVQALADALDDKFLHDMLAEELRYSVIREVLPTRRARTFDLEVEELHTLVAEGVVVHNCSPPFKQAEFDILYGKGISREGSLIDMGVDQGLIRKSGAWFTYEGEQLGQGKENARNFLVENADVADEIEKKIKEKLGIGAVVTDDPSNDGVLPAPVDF

[9] = P. falciparum Dd2 growth inhibitors, dose response, SYBR Green, cherry-picked samples (AID 1159567); type: functional, cell-based
Cytochrome P450 2C19 = Cytochrome P450 2C19 (Homo sapiens, UniProt P33261); experiment: Cytochrome panel assay with activity outcomes. Panel member name: p450-cyp2c19 Compounds with AC50 equal or less than 10 uM are considered active; type: functional; settings: read-out: AC50
[10] = non-specific 3'UTR reporter inhibition in Clone20-Shn3RL – cell-based, Renilla luciferase, cherry-picked, counter-screen for Shn3 inhibitor project, dose response (AID 624133); type: functional
[11] = reduction of Shn3 3'UTR-driven luciferase in osteoblasts – cell-based, Clone20 osteoblasts, firefly luciferase, cherry-picked, dose response (AID 624132); type: functional;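 further: firefly luciferase luminescence from reporter carrying the Shn3 3'UTR in osteoblasts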
Streptokinase A = biological target: T4, Streptokinase A (Streptococcus pyogenes serotype M1, UniProt P10520); experiment: viability-normalized secreted streptokinase activity reduction – plasminogen activation absorbance, OD405, dose response (AID 1914); type: functional, Streptococcus pyogenes M1 GAS;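 further: secreted streptokinase activity via plasminogen activation per viability signal from cell pellet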
T4 sequence (P10520 whole entry): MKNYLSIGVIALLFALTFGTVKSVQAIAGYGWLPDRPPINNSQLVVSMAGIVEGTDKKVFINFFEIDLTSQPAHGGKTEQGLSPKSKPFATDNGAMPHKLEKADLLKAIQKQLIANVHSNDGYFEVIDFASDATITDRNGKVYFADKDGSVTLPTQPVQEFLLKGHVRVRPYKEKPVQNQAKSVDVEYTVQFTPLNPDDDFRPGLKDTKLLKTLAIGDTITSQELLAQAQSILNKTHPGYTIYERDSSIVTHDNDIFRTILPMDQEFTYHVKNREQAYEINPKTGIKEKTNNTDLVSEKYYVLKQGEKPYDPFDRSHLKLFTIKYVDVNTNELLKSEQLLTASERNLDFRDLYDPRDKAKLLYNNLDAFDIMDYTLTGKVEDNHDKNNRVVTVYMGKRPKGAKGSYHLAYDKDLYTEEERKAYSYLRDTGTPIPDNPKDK

Streptococcus = experiment: GAS UMAA2166 growth inhibition – luminescence, BacTiterGlo, counter-screen for streptokinase expression inhibitor project, dose response (AID 1915); type: functional, organism-based;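 further: potency for reduction of bacterial viability or growth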
[12] = system: Streptococcus sp. 'group A'; experiment: Streptococcus pyogenes SK(-)GAS viability under kanamycin – luminescence, BacTiterGlo, confirmation, counter-screen for streptokinase expression inhibitor project, dose response (AID 1900); type: functional, organism-based
cells = type: functional

Cytochrome P450 2C19, sequence (P33261 whole entry): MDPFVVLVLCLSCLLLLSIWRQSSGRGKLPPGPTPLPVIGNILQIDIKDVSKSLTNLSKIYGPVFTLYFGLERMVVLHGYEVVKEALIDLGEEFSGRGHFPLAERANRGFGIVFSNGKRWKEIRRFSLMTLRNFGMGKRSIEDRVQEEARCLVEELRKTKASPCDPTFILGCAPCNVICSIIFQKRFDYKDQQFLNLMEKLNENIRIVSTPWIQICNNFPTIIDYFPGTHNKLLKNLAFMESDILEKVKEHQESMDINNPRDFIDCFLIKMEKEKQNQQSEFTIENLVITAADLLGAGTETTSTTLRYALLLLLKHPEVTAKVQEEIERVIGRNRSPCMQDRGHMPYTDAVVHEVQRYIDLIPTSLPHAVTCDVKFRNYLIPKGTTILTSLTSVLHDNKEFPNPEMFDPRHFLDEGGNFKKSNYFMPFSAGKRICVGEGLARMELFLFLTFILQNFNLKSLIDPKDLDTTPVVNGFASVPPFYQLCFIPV

C[C@H]1CN([C@@H](C)CO)C(=O)Cc2cc(NC(=O)Nc3ccc4c(c3)OCO4)ccc2O[C@H]1CN(C)Cc1ccc(-c2ccccc2)cc1
AC50 [1]: 6.07 µM (active)

C[C@H](CO)N1C[C@H](C)[C@@H](CN(C)Cc2ccc3c(c2)OCO3)Oc2c(NC(=O)CCCCCC(=O)Nc3ccccc3N)cccc2C1=O
AC50 [1]: 2.21 µM (active)

C[C@@H]1CN([C@@H](C)CO)C(=O)c2cccc(NC(=O)Nc3ccc4c(c3)OCO4)c2O[C@H]1CN(C)Cc1ccc(Cl)c(Cl)c1
AC50 [1]: 2.22 µM (active)

NC(=O)c1ccc(NC(=O)COC(=O)c2cc3c(s2)CCC3)cc1
IC50 [2]: 4.91 µM (active)

C=C(C)CCOC(=O)C(CC(=O)O)NCc1ccco1 (stereo not drawn)
IC50 [2]: 4.85 µM (active)

C[C@H]1CN([C@@H](C)CO)C(=O)Cc2cc(N(C)C)ccc2O[C@@H]1CN(C)Cc1ccc(Cl)c(Cl)c1
AC50 [1]: 2.09 µM (active)

CCC(C)N(CC(=O)Nc1cccc(C)c1C)C(=O)CCl (stereo not drawn)
EC50 [3]: 3.8 µM (active)
EC50 (BJ [4]): 0.608 µM (active)
EC50 (BJ [5]): 10.8 µM (active)
AC50 [6]: 57.3 µM (active)
CC50 [7]: 8.39 µM (active)
EC50 (BJ [8]): 5.48 µM (active)
EC50 (Protein RecA): 8.81 µM (active)

C[C@@H]1CN([C@@H](C)CO)C(=O)c2cccc(NC(=O)CCCCCC(=O)Nc3ccccc3N)c2O[C@H]1CN(C)Cc1ccc(Oc2ccccc2)cc1
AC50 [1]: 2.21 µM (active)

CC(C)(C)[S@+]([O-])N1Cc2cc(C(=O)NCCN3CCCC3)nc(-c3cccc(-c4ccc(C#N)cc4)c3)c2[C@@H]1CCO
AC50 [9]: 6.6 µM (active)

C[C@@H]1CN([C@H](C)CO)C(=O)c2cccc(NS(=O)(=O)c3cccs3)c2O[C@H]1CN(C)Cc1ccc(C(F)(F)F)cc1
AC50 [9]: 7.6 µM (active)

O=C(Cn1cnc2sc(-c3ccccc3)cc2c1=O)NCc1ccccc1
IC50 [2]: 7.5 µM (active)

C[C@@H]1CCCCO[C@H](CN(C)Cc2ccc(Cl)c(Cl)c2)[C@@H](C)CN([C@H](C)CO)C(=O)c2cc(NC(=O)CCCCCC(=O)Nc3ccccc3N)ccc2O1
AC50 [1]: 2.65 µM (active)

COc1cc(Cl)c(C)cc1NC(=O)CSc1sc2c(O)cc(=O)[nH]c2c1C#N
IC50 [2]: 2.46 µM (active)

Cc1ccc(S(=O)(=O)Nc2ccc3c(c2)C(=O)N([C@@H](C)CO)C[C@H](C)[C@@H](CN(C)Cc2ccc(-c4ccccc4)cc2)O3)cc1
AC50 [1]: 3.88 µM (active)

CC(C)C#Cc1ccc([C@@H]2[C@H](CO)N3CCCCN(C(=O)c4ccc5c(c4)OCO5)C[C@@H]23)cc1
AC50 [9]: 5.18 µM (active)

COc1ccccc1-c1cccc(-c2nc(C(=O)Nc3nccs3)cc3c2[C@H](CCO)N(C(=O)CC2CC2)C3)c1
AC50 [9]: 4.27 µM (active)

CCOc1ccc(CNC(=O)Cn2nc(C)c3c(C)n(-c4ccc(C)cc4)nc3c2=O)cc1
IC50 [2]: 6.46 µM (active)

Cc1ccc2cc(C)c3nnc(SCC(=O)NCc4ccco4)n3c2c1
AC50 (Cytochrome P450 2C19): 14.1 µM (inconclusive)
IC50 [2]: 8.54 µM (active)

CC(C)NC(=O)N(C)C[C@H]1Oc2c(NC(=O)c3cnccn3)cccc2C(=O)N([C@H](C)CO)C[C@H]1C
AC50 [1]: 3.41 µM (active)

O=C(C1=C[C@@H](C2CC2)C[C@@H](OCCCCO)O1)N1CCN(Cc2ccccc2)CC1
AC50 [10]: > 70 µM (inactive)
AC50 [11]: > 70 µM (inactive)

CC1=CC(C)(C)N(C(=O)CCl)c2cc(C)ccc21
EC50 [3]: 29.8 µM (active)
EC50 (BJ [4]): 5.77 µM (active)
EC50 (BJ [5]): > 150 µM (not active)
EC50 (BJ [8]): > 150 µM (not active)

C[C@@H]1CCCCO[C@H](CN(C)Cc2ccc(C(=O)Nc3ccccc3N)cc2)[C@@H](C)CN([C@H](C)CO)C(=O)c2cc(NS(=O)(=O)c3ccc(Cl)cc3)ccc2O1
AC50 [1]: 1.11 µM (active)

CCOc1ccccc1C(=O)OCC(=O)Nc1nnc(-c2ccccc2)o1
EC50 (Streptokinase A): > 150 µM (not active)
EC50 (Streptococcus): 14.6 µM (active)
EC50 [12]: 4.56 µM (active)
IC50 (cells): 19.2 µM (active)

CO[C@@H]1CN(C)C(=O)c2ccc(NC(=O)NC3CCCCC3)cc2OC[C@@H](C)N(CCc2ccccc2)C[C@H]1C
AC50 [9]: 5.41 µM (active)

CCCOC(=O)c1ccc(-c2ccc(C=O)o2)cc1
IC50 (cells): 9.73 µM (active)

C[C@@H]1CCCCO[C@H](CN(C)C(=O)Nc2ccc(C(F)(F)F)cc2)[C@@H](C)CN([C@H](C)CO)C(=O)c2cc(NC(=O)NC3CCCCC3)ccc2O1
AC50 [1]: 2.45 µM (active)

C[C@@H]1CCCCO[C@@H](CN(C)CC2CCCCC2)[C@@H](C)CN([C@H](C)CO)C(=O)c2cc(NC(=O)Nc3ccc(F)cc3)ccc2O1
AC50 [1]: 1.64 µM (active)

O=C(NC(=S)N1CCN(C/C=C/c2ccccc2)CC1)c1ccco1
IC50 (cells): 32.2 µM (active)

Sc1c2c(nc3ncnn13)CCC2
IC50 (cells): 16.6 µM (active)
